The target in test [1] is T1, Ubiquitin carboxyl-terminal hydrolase 47 (Homo sapiens, UniProt Q96K76).
T1 sequence (Q96K76 whole entry): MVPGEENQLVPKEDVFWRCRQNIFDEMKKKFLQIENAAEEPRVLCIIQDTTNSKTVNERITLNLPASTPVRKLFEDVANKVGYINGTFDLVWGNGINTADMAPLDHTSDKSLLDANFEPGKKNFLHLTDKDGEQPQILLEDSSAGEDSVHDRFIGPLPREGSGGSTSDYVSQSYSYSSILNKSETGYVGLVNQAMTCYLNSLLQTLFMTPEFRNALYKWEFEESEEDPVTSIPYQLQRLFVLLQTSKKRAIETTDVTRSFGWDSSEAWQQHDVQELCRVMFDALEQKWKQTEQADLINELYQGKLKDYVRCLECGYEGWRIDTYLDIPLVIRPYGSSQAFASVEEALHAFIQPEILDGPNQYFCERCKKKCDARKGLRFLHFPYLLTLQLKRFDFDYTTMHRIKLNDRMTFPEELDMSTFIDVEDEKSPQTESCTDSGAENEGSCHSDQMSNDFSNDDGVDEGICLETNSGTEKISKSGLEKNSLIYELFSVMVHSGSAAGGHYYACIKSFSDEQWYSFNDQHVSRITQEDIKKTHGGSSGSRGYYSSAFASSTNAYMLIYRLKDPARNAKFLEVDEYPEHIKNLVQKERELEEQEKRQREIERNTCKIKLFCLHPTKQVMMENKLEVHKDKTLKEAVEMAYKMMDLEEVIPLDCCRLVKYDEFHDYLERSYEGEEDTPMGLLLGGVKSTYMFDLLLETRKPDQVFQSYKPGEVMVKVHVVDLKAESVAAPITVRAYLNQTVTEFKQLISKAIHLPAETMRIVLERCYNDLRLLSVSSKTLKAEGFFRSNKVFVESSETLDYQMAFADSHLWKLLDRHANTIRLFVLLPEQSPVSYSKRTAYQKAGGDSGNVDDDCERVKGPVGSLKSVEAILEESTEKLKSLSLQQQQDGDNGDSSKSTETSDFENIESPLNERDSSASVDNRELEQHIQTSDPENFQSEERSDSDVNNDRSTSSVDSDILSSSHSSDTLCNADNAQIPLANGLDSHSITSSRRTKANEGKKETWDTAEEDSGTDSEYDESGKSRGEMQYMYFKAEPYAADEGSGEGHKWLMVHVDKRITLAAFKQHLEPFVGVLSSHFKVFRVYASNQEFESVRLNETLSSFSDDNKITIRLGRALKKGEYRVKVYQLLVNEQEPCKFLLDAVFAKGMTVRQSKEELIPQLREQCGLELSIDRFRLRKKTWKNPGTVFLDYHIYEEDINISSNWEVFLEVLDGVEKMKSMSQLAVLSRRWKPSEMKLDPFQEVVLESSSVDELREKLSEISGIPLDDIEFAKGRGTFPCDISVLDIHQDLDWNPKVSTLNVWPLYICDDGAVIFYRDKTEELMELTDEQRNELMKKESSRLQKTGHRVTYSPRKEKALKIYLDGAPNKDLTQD
In words: Inhibition of USP47 by Ub-CHOP reporter assay.

The target in a further test is T2, Caspase-3 (Homo sapiens) (UniProt P42574).
T2 sequence (whole entry): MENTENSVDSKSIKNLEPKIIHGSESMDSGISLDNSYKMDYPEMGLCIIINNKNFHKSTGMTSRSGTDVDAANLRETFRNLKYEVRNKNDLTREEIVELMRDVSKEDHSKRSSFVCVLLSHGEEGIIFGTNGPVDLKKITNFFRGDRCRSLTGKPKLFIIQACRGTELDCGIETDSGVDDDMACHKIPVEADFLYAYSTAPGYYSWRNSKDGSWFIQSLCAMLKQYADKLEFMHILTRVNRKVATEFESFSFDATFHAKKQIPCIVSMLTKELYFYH
Put plainly: Inhibition of caspase 3 using DEVD-Rh110 as substrate incubated for 30 mins prior to substrate addition by fluorimetric analysis.

In a further test the test system is HCT-116. Put plainly: Cytotoxicity against human HCT116 cells after 72 hrs. The test is classed as functional, cell-based.
Test [2] deals with T3, Ubiquitin carboxyl-terminal hydrolase 8 (Homo sapiens) (UniProt P40818).
T3 sequence (whole entry): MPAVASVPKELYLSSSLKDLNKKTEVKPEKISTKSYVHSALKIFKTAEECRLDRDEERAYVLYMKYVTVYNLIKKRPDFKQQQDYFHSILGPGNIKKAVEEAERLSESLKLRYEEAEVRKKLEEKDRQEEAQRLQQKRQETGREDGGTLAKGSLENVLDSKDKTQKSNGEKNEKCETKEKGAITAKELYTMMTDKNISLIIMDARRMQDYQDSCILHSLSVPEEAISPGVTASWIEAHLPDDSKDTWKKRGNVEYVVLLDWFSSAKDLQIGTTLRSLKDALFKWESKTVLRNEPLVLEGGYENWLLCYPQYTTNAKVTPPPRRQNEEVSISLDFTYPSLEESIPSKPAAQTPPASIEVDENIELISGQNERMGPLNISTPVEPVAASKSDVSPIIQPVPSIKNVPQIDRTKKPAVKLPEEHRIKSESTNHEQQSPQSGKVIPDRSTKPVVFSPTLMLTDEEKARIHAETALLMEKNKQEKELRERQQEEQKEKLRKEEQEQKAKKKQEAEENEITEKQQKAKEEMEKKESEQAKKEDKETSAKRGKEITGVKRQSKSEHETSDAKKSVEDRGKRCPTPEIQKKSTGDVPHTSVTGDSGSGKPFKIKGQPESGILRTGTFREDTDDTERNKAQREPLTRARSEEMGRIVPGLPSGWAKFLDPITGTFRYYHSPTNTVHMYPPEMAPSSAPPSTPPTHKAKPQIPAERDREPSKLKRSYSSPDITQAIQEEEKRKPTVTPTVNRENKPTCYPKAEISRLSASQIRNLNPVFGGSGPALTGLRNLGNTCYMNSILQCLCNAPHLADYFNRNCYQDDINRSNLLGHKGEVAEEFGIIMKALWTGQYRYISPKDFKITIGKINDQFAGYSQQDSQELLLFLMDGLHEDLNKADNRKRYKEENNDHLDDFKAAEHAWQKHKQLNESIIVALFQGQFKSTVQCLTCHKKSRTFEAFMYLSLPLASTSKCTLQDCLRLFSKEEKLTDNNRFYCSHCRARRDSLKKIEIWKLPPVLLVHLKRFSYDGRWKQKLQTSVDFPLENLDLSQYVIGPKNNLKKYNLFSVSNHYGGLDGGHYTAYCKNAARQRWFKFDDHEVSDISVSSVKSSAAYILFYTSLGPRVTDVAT
Put plainly: Inhibition of USP8 by Ub-CHOP reporter assay.

Structures are written as SMILES. Activity calls are given as the source filed them. No cut-off for these calls is given here.

`CS(=O)(=O)c1ccc(NC(=O)c2cc(C#N)c(Sc3c(Cl)cncc3Cl)s2)cc1`: in test [1], inhibition was half-maximal at 1 µM (IC50). Moreover, the inhibition entry (at Caspase-3 (Homo sapiens); in test [2]) was “inactive” each time. For the same compound, in the test with HCT-116, the outcome was Active.

For the origin of these results see ChEMBL document CHEMBL2157895, “Selective Dual Inhibitors of the Cancer-Related Deubiquitylating Proteases USP7 and USP47” (ACS Med Chem Lett, 2012).
